According to US5919799A, “Imidazothiazole compound” (Nikken Chemicals Co., Ltd., priority 1995, dated 1999):
Counter-ions that a name gives are not always drawn.

Legend:
[1] = test system: VJ-300 cells (multidrug resistant clones of KB cells); experiment: In vitro suppression of proliferation of VJ-300 cells by co-administration with vincristine; type: cell-based, Human; details: co-administered VCR and test compound (1 μg/ml), relative to VCR alone in KB = 1
Description: (§1) As the incubation solution, an Eagle MEM medium (made by Nissui Seiyakusha) containing 10% fetal calf serum (made by Flow Laboratories Co.) and 0.292 mg/ml L-glutamine (made by Flow Laboratories Co.) was used. The action overcoming resistance to an anti-neoplastic agent and effect in enforcing the effect of an anti-neoplastic agent obtained through co-administration of the anti-neoplastic agent doxorubicin (adriamycin, ADM) and the test compounds were tested as follows:
The test cells were suspended in the incubation medium and adjusted to a cell density of about 200 cells/ml. 2 ml portions of the cell suspension were placed in petri dishes and incubated in a carbon dioxide gas incubator (5% CO2, 95% air) at 37° C. for 24 hours. Next, predetermined concentrations of aqueous ADM solutions and dimethyl sulfoxide (DMSO) solutions of predetermined concentrations of the test compounds were added into 5 to 10 μl portions, then incubation was continued for 7 days. After the end of the incubation, the samples were fixed by methanol, Giemsa staining was performed, the number of colonies in each dish was counted, and a volume reaction curve was prepared. This was used to calculate the ADM concentration at a 50% cell survival rate (LD50) and judge the action overcoming resistance to an anti-neoplastic agent and effect in enhancing the effect of an anti-neoplastic agent.
The LD50 concentration of ADM in the ADM control group for KB cells was shown as the resistance degree "1" and the other LD50 concentrations were indexed against this to calculate the resistance degrees. In Table 2, ADM alone (control) is the group administered ADM alone, ADM+Compound 1 is the group co-administered ADM and Compound 1 (1 μg /ml) and so on down to ADM+Compound 19 which is the group co-administered ADM and Compound 19 (1 μg /ml).
A volume reaction curve was prepared and the resistance calculated. In the Tables, VCR alone (control) is the group administered VCR alone, VCR+Compound 1 is the group co-administered VCR and Compound 1(1 μg /ml) and so on down to VCR+Compound 16 which is the group co-administered VCR and Compound 16 (1 μg/ml).

[2] = test system: VCR resistant murine leukemia (P388/VCR) cells; experiment: In vivo effect of overcoming resistance with etoposide (VP-16) in P388/VCR bearing mice (intravenous); design: species or system CDF1 male mice; details: VP-16 (3 mg/kg) + compound (40 mg/kg), i.v., five days; for Effect overcoming resistance (T/V %): vs VP-16 alone; for Rate of prolongation of life (T/C %): vs non-administered control
Description: (b) Separately, groups of six CDF1 male mice were intravenously given transplants of 1.2×10^5 VCR resistant murine leukemia (P388/VCR) cells. The compound of the present invention (20 or 40 mg/kg) was dissolved in 0.01N hydrochloric acid. Etoposide (VP-16, 3 mg/kg) was dissolved in a physiological saline solution. These were administered intravenously for five days and the days of survival were found. In the same way as (a), the rate of prolongation of life with respect to the control (T/C) and the effect in overcoming the resistance to an anti-neoplastic agent (T/V) were found. In Table 6, the control is the non-administered group, VP-16 alone is the group administered VP-16 (3 mg/kg) and VP-16+Compound 5 is the group co-administered VP-16 (3 mg/kg) and Compound 5 (40 mg/kg) and so on to VP-16+Compound 16 which is the group co-administered VP-16 (3 mg/kg) and Compound 16 (40 mg/kg).

[3] = Acute toxicity test (b), intraperitoneal, five mice per group; details: mouse, in vivo, ip, groups of five, 1000 mg to 250 mg/kg
Description: (§2) (a) Animals used: ICR male mice (Charles River Japan), 7 to 8 weeks old, were used three to a group.
(§3) Test method: The compound of the present invention was suspended in 0.5% sodium carboxymethyl cellulose(CMC-Na) containing 0.1% Tween 80. […] The survival of the animals was examined up to 7 days after administration, then the Van Der Wearder area method was used to calculate the LD50 value.
(b) Groups of five mice were tested in the same way as in (a) except that the drug was administered intraperitoneally from 1000 mg by a rate of 1/√2 until 250 mg/kg.

[4] = test system: VJ-300 cells (multidrug resistant clones of KB cells); experiment: In vitro suppression of proliferation (colony formation) of VJ-300 cells by co-administration with doxorubicin; type: cell-based, Human; details: ADM alone (Control); relative to KB = 1
Description: In Vitro Test of Effect of Suppression of Proliferation of Cancer Cells by Co-Administration with Doxorubicin
as §1, with “Human epipharynx cancer derived cancer KB cells (sensitive cells) and their multidrug resistant clones VJ-300 cells (resistant cells) were used as test cells. As” for “As”
The test cells were suspended in the incubation medium and adjusted to a cell density of about 200 cells/ml. 2 ml portions of the cell suspension were placed in petri dishes and incubated in a carbon dioxide gas incubator (5% CO2, 95% air) at 37° C. for 24 hours. […] After the end of the incubation, the samples were fixed by methanol, Giemsa staining was performed, the number of colonies in each dish was counted, and a volume reaction curve was prepared. […]

[5] = test system: VCR resistant murine leukemic (P388/VCR) cells; experiment: In vivo effect of overcoming resistance to vincristine in VCR resistant murine leukemia cell bearing mice (intraperitoneal); design: species or system CDF1 male mice; details: VCR (100 μg/kg) + compound (100 mg/kg), i.p., 5 days
Description: (a) 10^6 VCR resistant murine leukemic (P388/VCR) cells were transplanted intraperitoneally to groups of six CDF1 male mice. The compound of the present invention (10 or 100 mg/kg) was suspended in 0.5% sodium carboxymethyl cellulose containing 0.1% Tween 80, while the VCR (100 μg/kg) was dissolved in physiological saline. These were each administered intraperitoneally over 5 days and the mice observed to find the days of survival and the rate of prolongation of life with respect to the control (T/C). The effect in overcoming resistance to an anti-neoplastic agent (T/V) was found from the following formula:
Effect in overcoming resistance to anti-neoplastic agent (T/V%)=(Rate of prolongation of life when co-administering VCR and compound of present invention (T/C%))/(Rate of prolongation of life by VCR alone
In Table 5, "Control" is the non-administered group, VCR alone is the group administered just VCR (100 μg /kg), VCR+Compound 1 is the group co-administered VCR (100 μg /kg) and Compound 1 (100 mg/kg) and so on to VCR+Compound 14* which is the group co-administered VCR (100 μg /kg) and Compound 14 (10 mg/kg).

[6] = Acute toxicity test (a), intraperitoneal, three animals per group; details: mouse, in vivo, ip, ICR male mice, up to 7 days after administration
Excerpt: as §2, §3

Compound: CCCN1CCCC(C(=O)NN=Cc2c(-c3ccccc3)nc3sc4c(n23)CCCC4)C1 (stereo not shown) [Compound 12, 5,6,7,8-tetrahydro-2-phenyl-3-[N-propyl-3-piperidylcarbonylaminoiminomethyl]imidazo[2,1-b]benzothiazole hydrochloride]
- Resistance with VCR, VJ-300 (resistance degree) ([1]; Table 4): 1.3
- Days of survival [2]: 13.2 days
- Effect overcoming resistance (T/V %) [2]: 118%
- Rate of prolongation of life (T/C %) [2]: 128%
- LD50 at 168 h [3]: 592 mg/kg

Compound: CN1CCCC(C(=O)NN=Cc2c(-c3ccccc3)nc3sc4ccccc4n23)C1 (stereo not shown) [Compound 15, 2-phenyl-3-[N-methyl-3-piperidylcarbonylaminoiminomethyl]imidazo[2,1-b]benzothiazole hydrochloride]
- Resistance with VCR, VJ-300 (resistance degree) ([1]; Table 4): 3.1
- Days of survival [2]: 13.0 days
- Effect overcoming resistance (T/V %) [2]: 116%
- Rate of prolongation of life (T/C %) [2]: 126%
- LD50 at 168 h [3]: ≥ 1000 mg/kg

Compound: COc1cccc2c1C(=O)c1c(O)c3c(c(O)c1C2=O)C[C@@](O)(C(=O)CO)C[C@@H]3O[C@H]1C[C@H](N)[C@H](O)[C@H](C)O1 [ADM, doxorubicin]
- Resistance at ADM, VJ-300 (resistance degree) [4]: 46.7

Compound: CN1CCCC(C(=O)NN=Cc2c(-c3ccccc3)nc3sc4c(n23)CCCC4)C1 (stereo not shown) [Compound 5, 5,6,7,8-tetrahydro-2-phenyl-3-(N-methyl-3-piperidylcarbonylaminoiminomethyl)imidazo[2,1-b]benzothiazole]
- Resistance with VCR, VJ-300 (resistance degree) ([1]; Table 3): 1.2
- Days of survival [5]: 14.38 days
- Effect overcoming resistance (T/V %) ([5]; vs VCR alone): 130%
- Rate of prolongation of life (T/C %) ([5]; vs non-administered control): 138%
- Days of survival [2]: 14.0 days
- Effect overcoming resistance (T/V %) [2]: 125%
- Rate of prolongation of life (T/C %) [2]: 136%
- LD50 at 168 h [6]: 604 mg/kg
